Data published in patent US10047067B2, “Composition for treating kidney disease comprising pyrazole derivative” (Ewha University-Industry Collaboration Foundation, priority 2012, dated 2018).
Entries after “also recorded” stand apart in the source; their conditions may differ.

Tests used:
C57BL/6J mice [1] = test: Collagen accumulation (Masson's trichrome, picrosirius red) and macrophage marker F4/80 immunohistochemical staining of renal tissue; format: in vivo; details: treatment group vs diabetes group, 10 mg/kg/day oral, 12 weeks; listed as Example 1, 10 mg/kg/day
Method: Immunohistochemical staining was performed as previously disclosed (Noh H, Kim J S, Han K-H, Lee G T, Song J S, Chung S H, Jeon J S, Ha H, Lee H B: Oxidative stress during peritoneal dialysis: implications in functional and structural changes in the membrane. Kidney Int. 69: 2022-2028, 2006).
Briefly, as described in Example 11, diabetes was induced in mice that were then treated with 1-(pyridin-2-yl)-3-phenyl-4-propyl-1H-pyrazol-5-ol.HCl, the compound of Example 1, and scarified 12 weeks later. After cardiac perfusion with 0.1 M PBS (phosphate-buffered saline), tissue fixation was performed overnight with 2% PLP (paraformaldehyde-lysine-periodate). Paraffin embedding was conducted by sequential treatment with: 70% ethanol for 1 hr; 80% ethanol for 1 hr; 90% ethanol for 1 hr; 95% ethanol for 1 hr, twice; 100% ethanol for 1 hr, three times; xylene for 30 min, twice; paraffin for 30 min; and paraffin for 1.5 hrs. The paraffin tissue was sliced into a section 4 μm thick, followed by deparaffinization with alcohol. In order to enhance antibody penetration thereinto, the renal tissue was immersed in 10 mM citrate buffer (pH 6.0), heated with microwaves (at 700 watts for 5 min and then at 100 watts for 5 min), and then finally incubated at room temperature for 30 min Intrinsic peroxidase was removed by treatment with peroxidase blocking reagent (Peroxidase Blocking Reagent Ready-To-Use, Dakocytomation) for 30 min. Subsequently, the renal tissue was incubated with a protein block serum-free solution (Protein Blocking Serum-Free Ready-To-Use, Dakocytomation) for 15 min and then overnight with a primary antibody (F4/80, Santa Cruz) at 4° C., followed by amplification with ABC kit (Santa Cruz) using the ABC (avidin-biotin-enzyme complex) method. […]
To examine tissue injury, staining was performed with Masson's trichrome (Sigma-Aldrich) and picrosirius red (Sigma-Aldrich) according to the manufacturer's instructions. The degree of tissue injury was expressed as tubulointerstitial collagen accumulation per area. […]

C57BL/6J mice [2] = test: Renal fibrosis: real-time PCR analysis of renal tissues; format: in vivo; details: renal tissue, treatment group vs diabetes group, 12 weeks
Method: Total RNA was isolated using Trizol reagent (Invitrogen) according to the manufacturer's instruction. The total RNA isolate was used for real-time PCR.
Briefly, as described in Example 10, diabetes was induced, and 1-(pyridin-2-yl)-3-phenyl-4-propyl-1H-pyrazol-5-ol.HCl, the compound of Example 1 of the present invention, was administered to the mice that were sacrificed 12 weeks later. Then, renal tissues were excised from the mice and homogenized with a predetermined amount (500 μl) of Trizol reagent (Invitrogen), followed by centrifuging the homogenate (13,000 rpm, 10 min). The supernatant was reacted with 200 μl of chloroform for 15 min and centrifuged. The total RNA was precipitated with isopropyl alcohol, and washed with 75% ethyl alcohol before use in experiments. From 2 μg of total RNA, cDNA was synthesized using a reverse transcription kit (Applied Biosystems), and selective mRNA was quantitatively analyzed in ABI 7300 real-time PCR thermal cycler (Applied Biosystems) with the aid of SYBR Green PCR Master Mix kit according to the manufacturer's instruction. Each experiment was run in duplicate with 20 μl. For correct quantitation and identification of results from a single product, a standard curve and a dissociation curve were employed. PCR was performed with 40 thermal cycles of 95° C. for 15 sec and 56° C. for 1 min.
In FIG. 3, the control (WT) stands for a group in which type 1 diabetes mellitus was not induced, the diabetes group (DM) for a group in which type 1 diabetes mellitus was induced, and the treatment group (DM+compound of Example 1) for a group that was treated with the compound of Example 1 after introduction of type 1 diabetes mellitus. Data of FIG. 3 are expressed as mean±standard error (SE) from 8 to 12 mice per group. Statistic comparison among the groups was analyzed by ANOVA and Fisher's least significant difference test, with significance at p<0.05. *P<0.05 vs. WT, †P<0.05 vs. DM.

SMILES: CCCc1c(-c2ccccc2)nn(-c2ccccn2)c1O.Cl [Compound 18-278, 1-(pyridin-2-yl)-3-phenyl-4-propyl-1H-pyrazol-5-ol.HCl]
- collagen accumulation, Masson's trichrome staining (blue area) (C57BL/6J mice [1]): in a smaller area than was the diabetes group; also recorded: significantly reduced
- collagen accumulation, picrosirius red staining (red area) (C57BL/6J mice [1]): a smaller area; also recorded: significantly reduced
- macrophage production, immunohistochemical staining (F4/80) (C57BL/6J mice [1]): in a smaller area than was the diabetes group; also recorded: significantly reduced
- expression level of Collagen Iα1 mRNA to 18S rRNA (C57BL/6J mice [2]): significantly decreased
- expression level of F4/80 mRNA to 18S rRNA (C57BL/6J mice [2]): significantly decreased
- expression level of TGF-β1 mRNA to 18S rRNA (C57BL/6J mice [2]): significantly decreased
- expression level of collagen IV mRNA to 18S rRNA (C57BL/6J mice [2]): significantly decreased
- expression level of fibronectin mRNA to 18S rRNA (C57BL/6J mice [2]): significantly decreased
